Results as given in patent US11873298B2, “Compounds and uses thereof” (JANSSEN PHARMACEUTICA NV, priority 2017, dated 2024).
“And” between values parts separate entries of the source, which are not always exact repeats. Equal entries are not always repeated.

How the values were obtained:
[1] = test system: yeast strains expressing the human α-synuclein; assay: Yeast α-synuclein toxicity rescue assay (OD600 growth); conditions: 40 h; for EC50: read-out: α-Syn EC50; for Emax: read-out: α-Syn Emax
[2] = molecular target: T1, Ole1 (Saccharomyces cerevisiae, UniProt P21147); assay: Growth inhibition of yeast strain expressing Ole1 as sole desaturase; type: cell-based; conditions: yeast strain expressing Ole1 as sole desaturase
T1 construct: expressed in transfected cells; host or cells: S. cerevisiae ole1Δ strain (W303 pdr1Δ pdr3Δ background), plasmid pRS316 with TDH3 promoter and CYC1 terminator
T1 sequence (P21147 1-510): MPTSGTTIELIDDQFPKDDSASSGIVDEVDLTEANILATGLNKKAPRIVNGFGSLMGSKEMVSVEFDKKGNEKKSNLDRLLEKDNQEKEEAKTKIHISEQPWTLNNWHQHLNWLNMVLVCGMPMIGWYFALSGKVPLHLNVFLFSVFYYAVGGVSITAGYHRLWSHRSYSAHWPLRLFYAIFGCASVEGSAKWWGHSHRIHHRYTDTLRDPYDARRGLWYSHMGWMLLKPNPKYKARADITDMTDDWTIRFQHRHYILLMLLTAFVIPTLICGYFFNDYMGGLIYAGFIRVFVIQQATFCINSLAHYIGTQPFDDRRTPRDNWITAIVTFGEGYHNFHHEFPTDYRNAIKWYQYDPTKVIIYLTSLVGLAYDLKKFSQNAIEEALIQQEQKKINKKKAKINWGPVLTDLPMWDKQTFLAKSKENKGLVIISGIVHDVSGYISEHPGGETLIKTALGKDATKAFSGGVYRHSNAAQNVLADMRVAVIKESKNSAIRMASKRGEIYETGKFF
In short: (§1)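 Plasmid-complemented ole1Δ yeast, drug-pump deleted (pdr1Δ pdr3Δ), depend solely on the introduced Ole1, SCD1 or SCD5 desaturase. Compounds are added from DMSO to cells in uracil-free galactose medium, 2× density 0.02, and OD600 is read after 24 h or 40 h respectively.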

[3] = molecular target: T2, SCD1 (Homo sapiens, UniProt O00767); assay: Growth inhibition of humanized yeast strain expressing SCD1 as sole desaturase; type: cell-based; conditions: humanized yeast strain expressing SCD1
T2 construct: host or cells: S. cerevisiae ole1Δ strain (W303 pdr1Δ pdr3Δ background), plasmid pRS316 with TDH3 promoter and CYC1 terminator
T2 sequence (O00767 1-359): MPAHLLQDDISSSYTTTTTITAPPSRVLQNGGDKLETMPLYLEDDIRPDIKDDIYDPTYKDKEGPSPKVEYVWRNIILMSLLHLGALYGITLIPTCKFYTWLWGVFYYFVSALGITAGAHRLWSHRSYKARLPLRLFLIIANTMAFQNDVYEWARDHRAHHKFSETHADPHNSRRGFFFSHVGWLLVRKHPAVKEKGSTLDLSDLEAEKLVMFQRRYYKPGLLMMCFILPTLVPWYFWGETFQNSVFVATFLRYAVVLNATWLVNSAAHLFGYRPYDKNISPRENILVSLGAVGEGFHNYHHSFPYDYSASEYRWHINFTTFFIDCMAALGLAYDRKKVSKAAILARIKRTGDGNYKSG
In short: as §1

[4] = molecular target: T3, SCD5 (Homo sapiens, UniProt Q86SK9); assay: Growth inhibition of humanized yeast strain expressing SCD5 as sole desaturase; type: cell-based; conditions: humanized yeast strain expressing SCD5
T3 construct: host or cells: S. cerevisiae ole1Δ strain (W303 pdr1Δ pdr3Δ background), plasmid pRS316 with TDH3 promoter and CYC1 terminator
T3 sequence (Q86SK9 1-330): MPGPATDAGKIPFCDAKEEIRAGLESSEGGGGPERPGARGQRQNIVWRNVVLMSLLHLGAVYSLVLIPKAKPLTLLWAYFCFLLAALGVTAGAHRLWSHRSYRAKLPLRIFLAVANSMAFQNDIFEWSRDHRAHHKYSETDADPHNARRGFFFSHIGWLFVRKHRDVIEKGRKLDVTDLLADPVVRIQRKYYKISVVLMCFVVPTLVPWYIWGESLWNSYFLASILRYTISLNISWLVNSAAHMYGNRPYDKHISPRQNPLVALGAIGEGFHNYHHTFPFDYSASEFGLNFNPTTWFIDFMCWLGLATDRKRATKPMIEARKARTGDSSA
In short: as §1

Structure (SMILES)	EC50 [1] [µM]	Emax [1] [%]	IC50 [2] [µM]	OLE1 % Max Inhibition [2]	IC50 [3] [µM]	SCD1 % Max Inhibition [3]	IC50 [4] [µM]	SCD5 % Max Inhibition [4]
COc1ccccc1C(=O)NCC(=O)N1CCC(c2nc(-c3ccc4c(C)nn(C)c4c3)no2)CC1 [Compound 152]	0.134	474	> 45	2.37%	> 45	83.39%	> 45	60.91%
Cc1nn(C)c2cc(-c3noc(C4CCN(C(=O)CNC(=O)c5ccccc5)CC4(F)F)n3)ccc12 (centres unmarked) [Compound 244]			> 45	3.34% and 1.29%	> 45	15.54% and 8.51%	> 45	2.85% and 2.47%
O=C(c1ccccc1)N1CCC(c2nc(N3CC4(COC4)C3)no2)CC1 [Compound 334]			> 45	84.4%		49.3%	> 45	66.7%
CCOc1ccc(-c2noc(C3CCN(C(=O)CNC(=O)c4ccccc4)CC3)n2)cc1Cl [compound 87]	1.93	579						
COc1ccc(-c2noc(C3CCN(C(=O)CNC(=O)c4ccccc4)CC3)n2)cc1OC(C)C [Compound 274]			> 45	75.9%		75.3%	> 45	67.0%
CC(C)(CO)n1ncc2ccc(-c3noc(C4CCN(C(=O)C5CC(=O)N(c6ccccc6)C5)CC4)n3)cc21 (centres unmarked) [Compound 203]			> 45	100.03%	> 45	84.83%	> 45	80.12%
Cc1nn(C)c2cc(-c3nsc(C4CCN(C(=O)C5CC(=O)N(c6ccccc6)C5)CC4)n3)ccc12 (centres unmarked) [Compound 251]			> 45	7.80%	> 45	83.15%	> 45	20.59%
CC(C)c1ccc(C(=O)N2CCC(c3nc(N4CC5(CCCO5)C4)no3)CC2)cc1 [Compound 336]			> 45	86.7%		56.9%	> 45	74.1%
Cc1nn(C)c2cc(-c3noc(C4CCN(C(=O)C5CC(=O)N(c6cccc(C#N)c6)C5)CC4)n3)ccc12 (centres unmarked) [Compound 168]			> 45	4.90% and 8.34%	> 45	114.58% and 74.07%	> 45	
O=C(NCC(=O)N1CCC(c2nc(-c3ccc4nonc4c3)no2)CC1)c1ccccc1 [Compound 163]			> 45	71.84%	36.5	55.99%	> 45	24.77%
Cc1ncc2ccc(-c3noc(C4CCN(C(=O)C5CC(=O)N(c6ccccc6)C5)CC4)n3)cn12 (centres unmarked) [Compound 216]			35.1	61.84%	> 45	83.82%	> 45	75.59%
COc1cccc(-c2noc(C3CC(=O)N(c4ccc(C)c(C)c4)C3)n2)c1 (centres unmarked) [Compound 490]			> 45	96.38%	38.8	63.84%	35.1	50.39%
CC(C)n1cc2ccc(-c3noc(C4CCN(C(=O)OC(C)(C)C)CC4)n3)cc2n1 [Compound 277]			> 45	94.36%		76.49%	> 45	74.99%
